Results as given in patent US20140213604A1, “PROTEIN KINASE C AS A TARGET FOR THE TREATMENT OF RESPIRATORY SYNCYTIAL VIRUS” (priority 2002, published 2014).
Like-named read-outs stand apart in the source and are kept apart here. Where a SMILES comes first, the peptide text is derived from it. The star is where a group is joined. Myristoyl = CCCCCCCCCCCCCC(=O)*

How the values were obtained:
[1] = system: RSV infection of NHBE cells; test: RSV infection of NHBE cells treated with signaling inhibitors, FITC anti-RSV mab staining and cell counting; format: cell-based, respiratory syncytial virus (RSV); settings: inhibitor 2 h before and 48 h after RSV, AG 490 50 μM, PD98059 80 μM, RO318220 3 μM, Wortmannin 300 nM
Experimental: NHBE cells were treated with different inhibitors for 2 hours at concentration as: AG 490 (50 μM), PD98059 (80 μM), RO318220 (3 μM), and Wortmannin (300 nM). DMSO was used as a mock control. The inhibitors were removed and the cells were infected with RSV for 2 hours. After the RSV was removed, the growth medium with the same concentration of inhibitors was added to the cells for 48 hours. The cells were rinsed with PBS prior to staining with FITC-labeled Anti-RSV monoclonal antibody (mab) (CHEMICON, Temecula, Calif.). The total cells and RSV positive cells were counted randomly from 15 to 20 different spots.
To determine if different signaling molecules related to the ERK pathway are required for a successful RSV infection, primary NHBE cells were exposed to various inhibitors previously to being infected with a sucrose-purified RSV preparation. […] Also, other PKC isoforms are activated later during the infection, which could potentially play a role in the late phase of ERK activation (Monick, M. et al., J Immunol, 166(4):2681-2687, 2001).

[2] = system: RSV infection of NHBE cells; test: RSV infection of NHBE cells pre-treated with PKC inhibitors, single cell immunofluorescence assay; format: cell-based, respiratory syncytial virus (RSV); settings: for number of infected cells, dose dependence: inhibitor 30 min before infection; for IC50: 16 h, read-out: concentration at which 50% inhibition of infected cells was reached

Compound	number of RSV infected cells [1]	number of infected cells, dose dependence ([2]; NHBE cells, RSV 1 MOI)	also measured
N#C/C(=C/c1ccc(O)c(O)c1)C(=O)NCc1ccccc1 [AG490]	significant reduction		number of RSV infected cells ([1]; listed as AG 490): substantially decrease
COc1ccc2c(c[n+](C)c3c4cc5c(cc4ccc23)OCO5)c1OC [Chelerythrine]		reduced in a dose-dependent manner	IC50 ([2]; human respiratory syncytial virus, NHBE): 7.5 µM
Calphostin C		reduced in a dose-dependent manner	IC50 ([2]; NHBE cells, RSV 1 MOI): 0.375 µM
CCCCCCCCCCCCCC(=O)N[C@@H](Cc1ccccc1)C(=O)N[C@@H](C)C(=O)N[C@@H](CCCNC(=N)N)C(=O)N[C@@H](CCCCN)C(=O)NCC(=O)N[C@@H](C)C(=O)N[C@@H](CC(C)C)C(=O)N[C@@H](CCCNC(=N)N)C(=O)N[C@@H](CCC(N)=O)C(N)=O [N-Myr-Phe-Ala-Arg-Lys-Gly-Ala-Leu-Arg-Gln] (Myristoyl-FARKGALRQ-NH2; N-terminus and C-terminus assumed)			solubility in water: soluble in water
Cn1cc(C2=C(c3cn(CCCSC(=N)N)c4ccccc34)C(=O)NC2=O)c2ccccc21 [Ro318220]	significant reduction		number of RSV infected cells ([1]; listed as RO318220): substantially decrease
COc1cccc(-c2cc(=O)c3ccccc3o2)c1N [PD98059]	significant reduction		
